ChEMBL document CHEMBL1148582, “Metal-mediated inhibition of Escherichia coli methionine aminopeptidase: structure-activity relationships and development of a novel scoring function for metal-ligand interactions” (J Med Chem, 2006)
Activity calls are given as the source filed them. No cut-off for these calls is given here.

Tests used:
[1] = molecular target: T1, Methionine aminopeptidase (Escherichia coli K-12) (UniProt P0AE18); test: Inhibition of Mn2+ loaded MetAP expressed in Escherichia coli at upto 10 uM
T1 sequence (whole entry): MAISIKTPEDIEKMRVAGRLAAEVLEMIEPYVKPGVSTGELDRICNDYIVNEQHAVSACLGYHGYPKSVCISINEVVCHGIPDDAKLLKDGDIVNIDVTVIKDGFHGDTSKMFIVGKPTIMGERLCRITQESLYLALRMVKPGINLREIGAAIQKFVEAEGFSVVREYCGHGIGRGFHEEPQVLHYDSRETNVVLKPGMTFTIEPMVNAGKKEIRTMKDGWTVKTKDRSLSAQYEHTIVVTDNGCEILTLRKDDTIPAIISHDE

[2] = molecular target: T2, Methionine aminopeptidase (Escherichia coli K-12, UniProt P0AE18); test: Inhibition of Co2+ loaded MetAP expressed in Escherichia coli
T2 sequence (P0AE18 whole entry): T1 sequence (whole entry)

[3] = molecular target: T1, Methionine aminopeptidase (Escherichia coli K-12); test: Inhibition of Co2+ loaded MetAP expressed in Escherichia coli at 10 uM

| Structure (SMILES) | inhibition [1] | IC50 [2] [µM] | inhibition [3] [%] |
| --- | --- | --- | --- |
| Oc1cccnc1-c1nc2ccccc2[nH]1 | inactive | 0.777 |  |
| Fc1ccc2[nH]c(-c3cscn3)nc2c1 | inactive |  |  |
| N#Cc1ccc2[nH]c(-c3ccccn3)nc2c1 | inactive | 0.431 |  |
| O=C(c1ccccc1)c1ccc2[nH]c(-c3cscn3)nc2c1 | inactive |  |  |
| O=[N+]([O-])c1ccc2[nH]c(-c3cscn3)nc2c1 | inactive |  |  |
| c1cncc(-c2nc3ccccc3[nH]2)c1 | inactive | > 10 | 4.21 |
| c1ccc(-c2nc3c[nH]cnc-3n2)nc1 | inactive | 0.376 |  |
| Cc1ccc2nc(-c3ccccn3)[nH]c2c1 | inactive |  |  |
| Cc1ccc2[nH]c(-c3cscn3)nc2c1 | inactive |  |  |
| c1c[nH]c2nc(-c3cscn3)nc-2c1 | inactive | 0.078 |  |
| Nc1ccc2nc(-c3ccccn3)[nH]c2c1 |  | 0.967 |  |
| c1ccc(Cn2c(-c3cscn3)nc3ccccc32)cc1 | inactive |  |  |
| CC(C)(C)c1ccc2nc(-c3ccccn3)[nH]c2c1 |  | 2.6 |  |
| COC(=O)Nc1nc2cc(C(=O)c3ccccc3)ccc2[nH]1 | inactive |  | 29 |
| Nc1ccc2[nH]c(-c3ccccn3)nc2c1 | inactive |  |  |
| Cc1ccc2[nH]c(-c3ccccn3)nc2c1 |  | 2.09 |  |
| c1ccc2[nH]c(-c3cnccn3)nc2c1 | inactive | 4.59 |  |
| c1ccc2[nH]c(Nc3nccs3)nc2c1 | inactive | 0.54 |  |
| Clc1ccc2[nH]c(-c3cscn3)nc2c1 | inactive | 5.15 |  |
| NC(=S)Nc1nc2ccccc2[nH]1 |  | 8.96 |  |
| c1cc2nc(-c3cscn3)[nH]c2cn1 |  | 1.72 |  |
| O=[N+]([O-])c1ccc2[nH]c(-c3ccccn3)nc2c1 | inactive | 0.162 |  |
| O=C(c1ccccc1)c1ccc2nc(-c3ccccn3)[nH]c2c1 |  | 0.403 |  |
| c1ccc(Cn2c(-c3ccccn3)nc3ccccc32)cc1 | inactive | 0.992 |  |
| COC(=O)Nc1nc2ccc(Sc3ccccc3)cc2[nH]1 [FENBENDAZOLE] |  | > 10 |  |
| CC(C)(C)c1ccc2nc(-c3cscn3)[nH]c2c1 |  | 3.91 |  |
| c1cc2[nH]c(-c3cscn3)nc2cn1 | inactive |  |  |

| Structure (SMILES) | inhibition [1] | IC50 [2] [µM] | inhibition [3] [%] |
| --- | --- | --- | --- |
| c1csc(-c2nc3ccccc3[nH]2)c1 | inactive | > 10 | 5.36 |
| CCCSc1ccc2nc(NC(=O)OC)[nH]c2c1 [ALBENDAZOLE] |  | > 10 |  |
| c1ccc(-c2nc3ncc[nH]c-3n2)nc1 | inactive | 0.24 |  |
| c1coc(-c2nc3ccccc3[nH]2)c1 [FUBERIDAZOLE] | inactive | > 10 | 10.4 |
| CC(C)(C)c1ccc2[nH]c(-c3cscn3)nc2c1 | inactive |  |  |
| O=C(c1ccccc1)c1ccc2[nH]c(-c3ccccn3)nc2c1 | inactive |  |  |
| COC(=O)Nc1nc2cc(Sc3ccccc3)ccc2[nH]1 | inactive |  | 6.07 |
| Fc1ccc2nc(-c3ccccn3)[nH]c2c1 | inactive |  |  |
| c1ccc(-c2nc3ccc[nH]c-3n2)nc1 | inactive | 0.105 |  |
| Cc1cc2nc(-c3ccccn3)[nH]c2cc1C | inactive | 2.43 |  |
| Clc1ccc2nc(-c3ccccn3)[nH]c2c1 | inactive | 1.69 |  |
| Nc1ccc2[nH]c(-c3cscn3)nc2c1 | inactive | 3.39 |  |
| O=c1cccc(-c2nc3ccccc3[nH]2)[nH]1 |  | 1.34 |  |
| Fc1ccc2[nH]c(-c3ccccn3)nc2c1 |  | 1.51 |  |
| CCCSc1ccc2[nH]c(NC(=O)OC)nc2c1 | inactive |  | 15.4 |
| c1ccc(-c2nc3cc[nH]cc-3n2)nc1 | inactive | 0.55 |  |
| Cn1c(-c2cscn2)nc2ccccc21 | inactive |  |  |
| N/C(S)=N/c1nc2ccccc2[nH]1 | inactive |  |  |
| c1ccc(-c2nc3ccccc3[nH]2)nc1 | inactive | 0.574 |  |
| Oc1ccccc1-c1nc2ccccc2[nH]1 | inactive | > 10 | 30.4 |
| COC(=O)Nc1nc2ccc(C(=O)c3ccccc3)cc2[nH]1 [MEBENDAZOLE] |  | > 10 |  |
| Oc1cccc(-c2nc3ccccc3[nH]2)n1 | inactive |  |  |
| c1ccc2[nH]c(-c3cscn3)nc2c1 [THIABENDAZOLE] | inactive | 0.472 |  |
| Cc1cc2nc(-c3cscn3)[nH]c2cc1C | inactive | > 10 | 47.8 |
| COC(=O)Nc1nc2ccccc2[nH]1 [CARBENDAZIM] | inactive | > 10 | 17.6 |
| CC(C)(C)c1ccc2[nH]c(-c3ccccn3)nc2c1 | inactive |  |  |
